Assay results from patent publication US6780853B1, “Neuroactive steroids of the androstane and pregnane series” (priority 1995, dated 2004).
Counter-ions that a name gives are not always drawn.

Tested on: GABA receptor complex (GRC)
Experiment: [35S]TBPS binding in rat cerebral cortex P2 homogenate
Conditions: for IMAX (maximum inhibition): maximum inhibition of [35S]TBPS binding; for IC50: concentration to inhibit 50% of control [35S]TBPS binding, 2 nM [35S]TBPS
Source text: To those skilled in the art, it is known that the modulation of [^35S]t-butylbicyclophosphorothionate ([^35S]TBPS) binding is a measure of the potency and efficacy of drugs acting at the GRC, which drugs may be of potential therapeutic value in the treatment of stress, anxiety, and seizure disorders (Squires, R. F., et al., Mol, Pharmacol., 23:326 (1983); Lawrence, L. J., et al., Biochem. Biophys. Res. Comm., 123:1130-1137 (1984); Wood, et al., Pharmacol, Exp. Ther., 231:572-576 (1984)). Several experiments were performed previously to determine the nature of the modulation of [^35S]TBPS as affected by neuroactive steroids. […] Furthermore, these compounds have high potency and efficacy at the GRC, with stringent structural requirements for such activity.
The procedures for performing this assay are fully discussed in: (1) Gee, K. W. et al., European Journal of Pharmacology, 136:419-423 (1987)); and (2) Gee, et al., Molecular Pharmacology 30:218 (1986). These procedures were performed as follows:
Brains from male Sprague-Dawley rats were removed immediately following sacrifice and the cerebral cortices dissected over ice. A P2 homogenate was prepared as previously described (Gee, et al., Molecular Pharmacology 30:218 (1986)). Briefly, the cortices were gently homogenized in 032 M sucrose followed by centrifugation at 1000×g for 10 minutes. The supernatant was collected and centrifuged at 9000×g for 20 minutes. The resultant P2 pellet was suspended as a 10% (original wet weight/volume) suspension in 50 mM Na/K phosphate buffer (pH 7.4) 200 mM NaCl to form the homogenate.
One hundred microliter […] aliquots of the P2 homogenate (0.5 milligrams (mg) protein) were incubated with 2 nanomolar (nM) [^35S]TBPS (70-110 curies/millimole; New England Nuclear, Boston, Mass.) in the presence or absence of the naturally occurring steroids or their synthetic derivatives to be tested. The tested compounds were dissolved in dimethylsulfoxide (Baker Chem. Co., Phillipsburg, N.J.) and added to the incubation mixture in 5 μL aliquots. The incubation mixture was brought to a final volume of 1 mL with buffer. Non-specific binding was defined as binding in the presence of […]. The effect and specificity of GABA (Sigma Chem. Co., St. Louis, Mo.) was evaluated by performing all assays in the presence of GABA plus (+)bicuculline (Sigma Chem. Co.). Incubations maintained at 25° C. for 90 minutes (steady state conditions) were terminated by rapid filtration through glass fiber filters (No. 32, Schleicher and Schuell, Keene, N.H.). Filter-bound radioactivity was quantitated by liquid scintillation spectrophotometry. Kinetic data and compound/[^35S]TBPS dose-response curves were analyzed by nonlinear regression using a computerized iterative procedure to obtain rate constants and IC50 (concentration of compound at which half-maximal inhibition of basal [^35S]TBPS binding occurs) values.
Various compounds were screened to determine their potential as modulators of [^35S]TBPS binding in vitro. These assays were performed in accordance with the above discussed procedures. Based on these assays, we have established the structure-activity requirements for their specific interaction at the GRC and their rank order potency and efficacy. Experimental data obtained in this assay for a number of 3α-hydroxypregnan-20-one derivatives is discussed in Gee, K. W. et al., European Journal of Pharmacology, 136:419-423 (1987) and in U.S. Pat. No. 5,232,917. Table 1 provides IC50 and maximum inhibition (IMAX) measurements for numerous compounds, including examples of compounds disclosed and claimed herein. IC50 is defined as concentration of compounds to inhibit 50% of control [^35S]TBPS binding. It is an indication of a compound's in vitro potency. Maximum inhibition is an indication of a compound's in vitro efficacy.

Row | SMILES | IMAX (maximum inhibition) [%] | IC50 [µM]
1 | CC(C)CCC[C@@H](C)[C@H]1CC[C@H]2[C@@H]3CC=C4C[C@@H](O)CC[C@]4(C)[C@H]3CC[C@]12C [Cholesterol, reference compound] | 0 | –
2 | C[n+]1ccc(SCC(=O)C2CCC3C4CCC5CC(O)CCC5(C)C4CCC23C)cc1 (stereo not drawn) [3α-Hydroxy-21-(4′-pyridyl)thio-5β-pregnan-20-one N-methyl io] [3α-hydroxy-21-(pyrid-4-ylthio)-5β-pregnan-20-one N-methyl iodide] | 53 | 0.263
3 | CC(=O)c1ccc(C#CC2(O)CCC3C(CCC4C3CCC3(C)CCCC43)C2)cc1 (stereo not drawn) [3α-Hydroxy-3β-(4′-acetylphenyl)ethynyl-5β-19-norandrostane] | 99 | 0.492
4 | CCCO[C@H]1C[C@@]2(C)[C@@H](CC[C@@H]3[C@@H]2CC[C@]2(C)[C@@H](C(=O)CSc4ccncc4)CC[C@@H]32)C[C@@H]1O [3α-hydroxy-2β-propoxy-21-(pyrid-4-ylthio)-5α-pregnan-20-one] | 98 | 0.014
5 | CCCOC1CC2(C)C(CCC3C2CCC2(C)C(C(=O)COc4ccc([N+](C)(C)C)cc4)CCC32)CC1O (stereo not drawn) [3α-hydroxy-2β-propoxy-21-(4′-N,N,N-trimethylammoniumphenoxy)-5α-pregnan-20-one iodide salt] | 92 | 0.129
6 | COCC1(O)CCC2(C)C(CCC3C2CCC2(C)C(C(=O)CSc4ccncc4)CCC32)C1 (stereo not drawn) [3α-hydroxy-3β-methoxymethyl-21-(pyrid-4-ylthio)-5α-pregnan-20-one] | 106 | 0.038
7 | COC1CCC2C3CCC4CC(O)(C(F)(F)F)CCC4(C)C3CCC12C (stereo not drawn) [3α-Hydroxy-17β-methoxy-3β-trifluoromethyl-5α-androstane] | 100 | 0.341
8 | C#C[C@@]1(O)CC[C@@]2(C)[C@H](CC[C@@H]3[C@@H]2CC[C@]2(C)[C@@H](C(=O)CSCCCO)CC[C@@H]32)C1 [3β-ethynyl-3α-hydroxy-21-hydroxypropylthio-5β-pregnan-20-one] | 97 | 0.093
9 | C[C@@]1(O)CC[C@@]2(C)[C@@H](CC[C@@H]3[C@@H]2CC[C@]2(C)[C@@H](C(=O)COc4ccc5ncccc5c4)CC[C@@H]32)C1 [3α-hydroxy-3β-methyl-21-(quinolin-6-yloxy)-5α-pregnan-20-one] | 96 | 0.076
10 | CC12CCC(O)CC1CCC1C2CCC2(C)C(C(=O)COc3ccc[n+]([O-])c3)CCC12 (stereo not drawn) [3α-Hydroxy-21-(3′-pyridyl)oxy-5β-pregnan-20-one N-oxide] | 62 | 0.292
11 | C#C[C@@]1(O)CC[C@@]2(C)[C@H](CC[C@@H]3[C@@H]2CC[C@]2(C)[C@@H](C(=O)CS(=O)(=O)CCCO)CC[C@@H]32)C1 [3β-Ethynyl-3α-hydroxy-21-hydroxypropylsulfonyl-5β-pregnan-20-one] | 107 | 0.194
12 | C[C@]12CC[C@@H](O)C[C@H]1CC[C@@H]1[C@@H]2CC[C@]2(C)[C@@H](C(=O)CCc3ccncc3)CC[C@@H]12 [3α-Hydroxy-21-(4-pyridylmethyl)-5β-pregnan-20-one] | 103 | 0.187
13 | C#CC1(O)CCC2(C)C(CCC3C2CCC2(C)C(C(=O)CSCCOS(=O)(=O)O)CCC32)C1 (stereo not drawn) [3β-ethynyl-3α-hydroxy-21-thioethanesulfate-5β-pregnan-20-one trimethyl ammonium salt] | 101 | 0.322
14 | C#CC1(O)CCC2(C)C(CCC3C2CCC2(C)C(C(=O)CSCCCS(=O)(=O)O)CCC32)C1 (stereo not drawn) [3β-ethynyl-3α-hydroxy-21-thiopropanesulfonate-5β-pregnan-20-one sodium salt] | 97 | 0.343
15 | CCCOC1CC2(C)C(CCC3C2CCC2(C)C(C(=O)CSc4cc[n+](C)cc4)CCC32)CC1O (stereo not drawn) [3α-Hydroxy-2β-propoxy-21-(pyrid-4-ylthio)-5α-pregnan-20-one N-methyl iodide] | 101 | 0.126
16 | C[C@]12CC[C@@H](O)C[C@H]1CC[C@@H]1[C@@H]2CC[C@]2(C)[C@@H](C(=O)COc3ccncc3)CC[C@@H]12 [3α-Hydroxy-21-(pyrid-4-yloxy)-5β-pregnan-20-one] | 76 | 0.045
17 | C#CC1(O)CCC2(C)C(CCC3C2CCC2(C)C(C(=O)C[S+]([O-])CCCO)CCC32)C1 (stereo not drawn) [3β-Ethynyl-3α-hydroxy-21-hydroxpropylsulfinyl-5β-pregnan-20-one] | 107 | 0.782
18 | CO[C@H]1CC[C@H]2[C@@H]3CC[C@H]4C[C@](C)(O)CC[C@]4(C)[C@H]3CC[C@]12C [3α-Hydroxy-17β-methoxy-3βmethyl-5α-androstane] | 97 | 0.097
19 | C[n+]1ccc(SCC(=O)C2CCC3C4CCC5CC(O)CCC5(C)C4CCC23C)cc1 (stereo not drawn) [3α-Hydroxy-21-(pyrid-4-ylthio)-5α-pregnan-20 -one N-methyl i] [3α-Hydroxy-21-(pyrid-4-ylthio)-5α-pregnan-20-one N-methyl iodide] | 100 | 0.188
20 | C[C@@]12CCC[C@H]1[C@@H]1CC[C@H]3C[C@H](O)CC[C@]3(C)[C@H]1CC2 [3α-Hydroxy-5α-androstane, reference compound] | 99 | 0.494
21 | C[C@]12C[C@H](O)[C@H]3[C@@H](CCC4=CC(=O)CC[C@@]43C)[C@@H]1CC[C@@H]2C(=O)CO [4-Pregnan-11β,21-diol-3,20-dione, reference compound] | 30 | > 1000
22 | CCCO[C@H]1C[C@@]2(C)[C@@H](CC[C@@H]3[C@@H]2CC[C@]2(C)[C@@H](C(=O)CS(=O)(=O)CCCS(=O)(=O)[O-])CC[C@@H]32)C[C@@H]1O.[Na+] [3α-Hydroxy-2β-propoxy-21-sulfonylpropanesulfonate-5α-pregnan-20-one sodium salt] | 101 | 1.02
23 | C[C@]12CC[C@@H]3c4ccc(O)cc4CC[C@H]3[C@@H]1CC[C@@H]2O [17β-Estradiol, reference compound] | 0 | –
24 | COCC1(O)CCC2(C)C(CCC3C2CCC2(C)C(C(=O)CSc4ccc(F)cc4)CCC32)C1 (stereo not drawn) [21-(4′-fluorophenylthio)-3α-hydroxy-3β-methoxymethyl-5α-pregnan-20-one] | 97 | 0.176
25 | C#CC1(O)CCC2(C)C(CCC3C2CCC2(C)C(C(=O)CSCCC(=O)O)CCC32)C1 (stereo not drawn) [3β-ethynyl-3α-hydroxy-21-thiopropanoate-5β-pregnan-20-one sodium salt] | 101 | 1.02
26 | CC(=O)[C@H]1CC[C@H]2[C@@H]3CC[C@H]4C[C@@H](O)CC[C@]4(C)[C@H]3CC[C@]12C [3β-Hydroxy-5α-pregnan-20-one, reference compound] | 33 | > 1000
27 | CC(=O)[C@H]1CC[C@H]2[C@@H]3CCC4=CC(=O)CC[C@]4(C)[C@H]3CC[C@]12C [Progesterone, reference compound] | 100 | 5.2
28 | C#C[C@@]1(O)CC[C@@]2(C)[C@H](CC[C@@H]3[C@@H]2CC[C@]2(C)[C@@H](C(=O)CSCCO)CC[C@@H]32)C1 [3β-Ethynyl-3α-hydroxy-21-hydroxyethylthio-5β-pregnan-20-one] | 103 | 0.18
